According to US10307413B2, “Tetrahydro- and dihydro-isoquinoline PRMT5 inhibitors and uses thereof” (Epizyme, Inc., priority 2013, dated 2019):
Where two headings read alike, the source gives them in different places.

Tests used:
PRMT5/MEP50 = PRMT5/MEP50 (Homo sapiens (Human), UniProt O14744); assay: PRMT5 Biochemical Assay (PRMT5/MEP50 enzyme assay on peptide substrate, 3H-SAM Flashplate)
How it was run: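 Radiometric methylation of a biotin-tagged H4(1-15) peptide by human PRMT5/MEP50 from baculovirus/Sf9, with ³H-SAM incorporation read on streptavidin Flashplates. Buffer: Bicine pH 7.6, TCEP, BSG, Tween20; compound preincubated 30 min at 25 °C; stopped with 600 µM final unlabeled SAM. DMSO and SAH controls; IC50 from fitted % inhibition.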

Z-138 cell line = assay: Z-138 Proliferation Assay (Cell Titer Glo, 5 days); format: cell-based; conditions: Homo sapiens, read-out: Proliferation EC50
How it was run: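 Z-138 cells exposed 5 days at 37 °C, 5% CO2 to nine-point 3-fold dilutions (final top 20 μM, 0.2% DMSO), in triplicate. Viability read as ATP by CellTiter-Glo luminescence; IC50 from 4-parameter fit of normalized dose-response curves.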

[1] = system: symmetric di-methyl arginine in Z-138 cells; assay: Z-138 Methylation Assay (In Cell Western for symmetric di-methyl arginine and DNA content); format: cell-based; conditions: Homo sapiens, read-out: ICW EC50
How it was run: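 Z-138 cells (50,000 cells/mL) treated with compound 96 h at 37 °C, then fixed and stained for symmetric di-methyl arginine (800 nm) with DRAQ5 DNA counterstain (700 nm) on Licor Odyssey.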

[2] = 120 h, Z-138 cells, 5 days, Cell Titer Glo

Chain of PRMT5/MEP50 (O14744 other isoform, or with tags, fused parts or gaps): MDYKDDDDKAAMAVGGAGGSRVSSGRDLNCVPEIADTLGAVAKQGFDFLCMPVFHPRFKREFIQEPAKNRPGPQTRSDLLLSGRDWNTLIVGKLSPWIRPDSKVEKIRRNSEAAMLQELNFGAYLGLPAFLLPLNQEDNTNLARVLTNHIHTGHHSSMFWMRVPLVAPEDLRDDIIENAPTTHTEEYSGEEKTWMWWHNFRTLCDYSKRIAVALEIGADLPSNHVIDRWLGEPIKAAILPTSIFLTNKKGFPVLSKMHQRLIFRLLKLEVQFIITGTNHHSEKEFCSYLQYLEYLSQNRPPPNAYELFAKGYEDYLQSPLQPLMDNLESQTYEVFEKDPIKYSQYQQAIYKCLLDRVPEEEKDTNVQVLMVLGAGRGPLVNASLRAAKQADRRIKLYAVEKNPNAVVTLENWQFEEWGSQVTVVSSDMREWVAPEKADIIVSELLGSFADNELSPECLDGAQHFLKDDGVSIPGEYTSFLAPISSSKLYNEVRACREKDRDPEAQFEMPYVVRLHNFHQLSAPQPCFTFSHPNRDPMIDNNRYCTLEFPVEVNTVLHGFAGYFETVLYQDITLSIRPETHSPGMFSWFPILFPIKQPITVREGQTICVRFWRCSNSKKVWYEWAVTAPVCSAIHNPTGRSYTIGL
Chain of PRMT5/MEP50 (Q9BQA1 other isoform, or with tags, fused parts or gaps partner): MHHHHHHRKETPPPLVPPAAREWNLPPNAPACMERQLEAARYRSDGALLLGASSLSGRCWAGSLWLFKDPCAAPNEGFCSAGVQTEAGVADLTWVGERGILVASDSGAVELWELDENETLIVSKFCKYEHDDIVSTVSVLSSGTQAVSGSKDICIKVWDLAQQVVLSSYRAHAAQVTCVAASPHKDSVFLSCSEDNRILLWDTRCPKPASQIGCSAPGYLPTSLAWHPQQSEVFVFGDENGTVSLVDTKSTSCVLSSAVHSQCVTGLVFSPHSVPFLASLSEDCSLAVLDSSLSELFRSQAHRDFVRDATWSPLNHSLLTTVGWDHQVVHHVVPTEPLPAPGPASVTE

Row | IC50 (PRMT5/MEP50; PRMT5 biochemical assay) | EC50 ([1]; In Cell Western methylation) | IC50 (PRMT5/MEP50) | EC50 [1] | SMILES | EC50 (Z-138 cell line; [2]) | EC50 (Z-138 cell line; 120 h, Z-138 cells, 5 days) | EC50 (Z-138 cell line; Z-138, 120 h)
1 | < 100 nM | < 100 nM |  |  | Cc1nc(NC2COC2)cc(C(=O)NC[C@H](O)CN2CCc3ccccc3C2)n1 [Compound 399] | 1000 to 10000 nM |  | 
2 |  |  | < 100 nM | 101 to 1000 nM | CN1CCC(Nc2cccc(C(=O)NCC(O)CN3CCc4ccccc4C3)c2)C1 (stereo not drawn) [Compound 120] |  | 1000 to 10000 nM | 
3 | < 100 nM | 101 to 1000 nM |  |  | CCOc1nc(NC2CNC2)cc(C(=O)NC[C@H](O)CN2CCc3ccccc3C2)n1 [Compound 486] | 1000 to 10000 nM |  | 
4 | < 100 nM | 101 to 1000 nM |  |  | Cc1cnc(NC2CCN(C)C2)cc1C(=O)NC[C@H](O)CN1CCc2ccccc2C1 (stereo partly drawn) [Compound 401] | 1000 to 10000 nM |  | 
5 | < 100 nM | < 100 nM |  |  | CO[C@H]1C[C@H](Nc2cc(C(=O)NC[C@H](O)CN3CCc4ccccc4C3)ncn2)C1 [Compound 559] | 101 to 1000 nM |  | 
6 | < 100 nM | < 100 nM |  |  | CN1CC(Nc2ccnc(C(=O)NC[C@H](O)CN3CCc4ccccc4C3)c2)C1 [Compound 575] | > 5000 nM |  | 
7 | < 100 nM | < 100 nM |  |  | C[C@@H](N1CC(Nc2cc(C(=O)NC[C@H](O)CN3CCc4ccccc4C3)ncn2)C1)C(F)(F)F [Compound 446] | 1000 to 10000 nM |  | 
8 | < 100 nM | < 100 nM |  |  | CC(=O)N1CC[C@H](Nc2cc(C(=O)NC[C@H](O)CN3CCc4ccccc4C3)ncn2)C1 [Compound 582] | 1000 to 10000 nM |  | 

Further lines, the compound ahead of its results:

Row | SMILES | IC50 (PRMT5/MEP50; PRMT5 biochemical assay) | EC50 ([1]; In Cell Western methylation) | IC50 (PRMT5/MEP50) | EC50 [1] | EC50 (Z-138 cell line; [2]) | EC50 (Z-138 cell line; 120 h, Z-138 cells, 5 days) | EC50 (Z-138 cell line; Z-138, 120 h)
9 | NC(=O)[C@H]1CC[C@@H](Nc2cc(C(=O)NC[C@H](O)CN3CCc4ccccc4C3)ncn2)CC1 [Compound 596] | < 100 nM | < 100 nM |  |  | 1000 to 10000 nM |  | 
10 | CC(=O)N1CCC(Nc2cc(C(=O)NC[C@H](O)CN3CCc4c(C)cccc4C3)ccn2)CC1 [Compound 670] | < 100 nM | < 100 nM |  |  | 101 to 1000 nM |  | 
11 | CN(C)C(=O)[C@H]1C[C@@H](Nc2cc(C(=O)NC[C@H](O)CN3CCc4ccccc4C3)ncn2)C1 [Compound 515] | < 100 nM | < 100 nM |  |  | 101 to 1000 nM |  | 
12 | CC(=O)N1CCC(Nc2cc(C(=O)NC[C@H](O)CN3CCc4ccccc4C3)cc(OCCN(C)C)n2)CC1 [Compound 628] | < 100 nM | < 100 nM |  |  | < 100 nM |  | 
13 | CNCCCOc1ccc(C(=O)NC[C@H](O)CN2CCc3ccccc3C2)cc1 [Compound 392] |  |  | < 100 nM | < 100 nM |  | 1000 to 10000 nM | 
14 | CN1CCC(Oc2cc(C(=O)NC[C@H](O)CN3CCc4ccccc4C3)cnn2)CC1 [Compound 620] | < 100 nM | 101 to 1000 nM |  |  | 10000 to 50000 nM |  | 
15 | O=C(NC[C@H](O)CN1CCc2ccccc2C1)c1cnnc(NC2COC2)c1 [Compound 545] | < 100 nM | < 100 nM |  |  | 1000 to 10000 nM |  | 
16 | NC(=O)c1cccc(C(=O)NCC(O)CN2CCc3ccccc3C2)c1 (stereo not drawn) [Compound 25] |  |  | 101 to 1000 nM | 1000 to 10000 nM |  | > 20000 nM | 
17 | CC(C)(O)CNCC1CN2C=NC(C(=O)NC[C@H](O)CN3CCc4ccccc4C3)=CC2=N1 (stereo partly drawn) [Compound 603] | 101 to 1000 nM | > 1000 nM |  |  | 1000 to 10000 nM |  | 
18 | CCC(=O)N1CCN(c2nc(NC3CNC3)cc(C(=O)NC[C@H](O)CN3CCc4ccccc4C3)n2)CC1 [Compound 484] | < 100 nM | < 100 nM |  |  | 1000 to 10000 nM |  | 
19 | CSCCNc1cc(C(=O)NC[C@H](O)CN2CCc3ccccc3C2)ncn1 [Compound 554] | < 100 nM | < 100 nM |  |  | 101 to 1000 nM |  | 
20 | CC(CNC(=O)c1cc(NC2COC2)ncn1)CN1CCc2ccccc2C1 (stereo not drawn) [Compound 657] | < 100 nM | < 100 nM |  |  | > 5000 nM |  | 
21 | O=C(NCCCN1CCc2ccccc2C1)c1cc(NC2COC2)ncn1 [Compound 651] | 101 to 1000 nM | > 1000 nM |  |  | > 5000 nM |  | 
22 | CC(=O)[C@H]1CC[C@@H](Nc2cc(C(=O)NC[C@H](O)CN3CCc4ccccc4C3)ncn2)CC1 [Compound 615] | < 100 nM | < 100 nM |  |  | < 100 nM |  | 
23 | CCSCCN1CCC(Nc2cc(C(=O)NC[C@H](O)CN3CCc4ccccc4C3)ncn2)CC1 [Compound 570] | < 100 nM | < 100 nM |  |  |  |  | 1000 to 10000 nM
24 | CN(C)c1nc(NC2CNC2)cc(C(=O)NC[C@H](O)CN2CCc3ccccc3C2)n1 [Compound 529] | < 100 nM | 101 to 1000 nM |  |  | 101 to 1000 nM |  | 
25 | O=C(NCC(O)CN1CCc2ccccc2C1)c1cccnc1 (stereo not drawn) [Compound 18] |  |  | 101 to 1000 nM | 101 to 1000 nM |  | 10000 to 50000 nM | 
